Results on eleven molecules are retold here after ChEMBL document CHEMBL6092150, “Exploration of isatin-based inhibitors of SARS-CoV-2 Nsp15 endoribonuclease” (Eur J Med Chem, 2024).

The structures appear in SMILES notation. Activity calls are given as the source filed them. The rule behind the calls is not given here.

Data set [1] addresses Replicase polyprotein 1ab (Severe acute respiratory syndrome coronavirus 2) (UniProt P0DTD1). As to the kind of experiment: Inhibition of SARS-CoV-2 recombinant GST-tagged nsp15 endonuclease activity using 5'-6-FAM-AArUAA-lowa Black FQ-3' as substrate assessed as cleavage of substrate at 100 uM measured every 2 min for 1 hrs by FRET-based Nsp15 EndoU assay relative to control.

Data set [2] addresses Replicase polyprotein 1ab (Severe acute respiratory syndrome coronavirus 2, UniProt P0DTD1). The data set can be described thus: (§1) Inhibition of SARS-CoV-2 recombinant GST-tagged nsp15 endonuclease activity using 5'-6-FAM-AArUAA-lowa Black FQ-3' as substrate assessed as cleavage of substrate measured every 2 min for 1 hrs by FRET-based Nsp15 EndoU assay.
For data set [3], the target named is Replicase polyprotein 1ab (Severe acute respiratory syndrome coronavirus 2) (UniProt P0DTD1). Described as §1.
In the next data set the test system is Vero C1008. The data set can be described thus: Cytotoxicity against african green monkey Vero E6 cells at 100 uM incubated for 72 hrs by MTT cell viability assay. The class given is toxicity, cell-based. The settings on record: chlorocebus sabaeus, vero c1008, 72 h. (Tetrazolium dyes change colour on reduction, which living cells bring about.)
Data set [4] deals with Replicase polyprotein 1ab (Severe acute respiratory syndrome coronavirus 2) (UniProt P0DTD1). The data set can be described thus: Effect on SARS-CoV-2 recombinant Nsp15 oligomerization state at 0.1 to 1 mM by Commassie-Native gel electrophoresis. Conditions: dose 0.1-1 mM.
Data set [5] in a line: Cytotoxicity against human A549 cells by MTS cell viability analysis. The format is toxicity, cell-based.
A further data set deals with MRC5. As to the kind of experiment: Cytotoxicity against human MRC5 cells at 100 uM incubated for 72 hrs by MTT cell viability assay. The format is toxicity, cell-based. Conditions: mrc5, 72 h.

Regarding `N#CC(C#N)=C1C(=O)Nc2ccc(I)cc21`, the inhibition is 32.6% in data set [1] and “Dose-dependent-effect” in data set [3]. The IC50 in data set [2] is 151 µM.
Consider `O=C1Nc2c(Br)cc(Br)cc2C1=O`, for which the inhibition in data set [1] stood at 58.4%.
Turning to `O=C1Nc2ccc(I)cc2C1=O`, the inhibition in data set [1] turned out to be 26.2%.
Take `N#CC(C#N)=C1C(=O)Nc2ccc(F)cc21`: the inhibition in data set [1] is 30.2%; in data set [3], “Dose-dependent-effect”. Moreover, the IC50 in data set [2] is 236 µM.
For `N#CC(C#N)=C1C(=O)Nc2c(Br)cc(Br)cc21`, the inhibition is 68.1% in data set [1] and “Dose-dependent-effect” in data set [3]. For the same molecule, the IC50 in data set [2] worked out at 53.5 µM. The Activity entry in the data set on Vero C1008 and in the data set on MRC5 was “Non-toxic” throughout. Besides, the outcome in data set [4] was inactive. In data set [5], this molecule registered a CC50 of 134 µM.
`O=C1Nc2ccc(F)cc2C1=O`: in data set [1], the inhibition was 13.6%.
Turning to `N#C[C@@]1(c2ccc3c(N)ncnn23)O[C@H](CO)[C@@H](O)[C@H]1O` [GS-441524], the CC50 in data set [5] is > 40 µM.
For the molecule `N#CC(C#N)=C1C(=O)Nc2ccc([N+](=O)[O-])cc21`, the inhibition is 61.5% in data set [1] and “Dose-dependent-effect” in data set [3]. In addition, the IC50 in data set [2] came to 43.5 µM. For the same molecule, the Activity entry with Vero C1008 and in the data set on MRC5 was “Non-toxic” in each case. Further, the result in data set [4] was inactive. The molecule further returned a CC50 in data set [5] of 189 µM.
Consider `N#CC(C#N)=C1C(=O)Nc2ccc(Br)cc21`, for which the values for the inhibition in data set [1] and in data set [3] were 55.9% and “Dose-dependent-effect”, respectively. For the same molecule, the IC50 in data set [2] was 82.9 µM.
Take `O=C1Nc2ccc([N+](=O)[O-])cc2C1=O` [5-NITROISATIN]: the inhibition in data set [1] turned out to be 40.7%. Besides, the Activity result in the data set on Vero C1008 and in the data set with MRC5 was “Non-toxic” each time.
In the case of `O=C1Nc2ccc(Br)cc2C1=O`, the inhibition in data set [1] was 32.7%.

The inhibition is how much of the control response was suppressed. As a reminder, the IC50 is the point on the concentration scale where inhibition reaches its midpoint. In general, CC50 refers to the concentration at which the toxic effect on the cells reaches its halfway point.
